Results on one compound are retold here after patent publication US20050004044A1, “Use of orsaponin [3beta, 16beta, 17 alpha-trihydroxycholost-5-en-22-one 16-0-(2-0-4-methoxybenzoyl-beta-D-xylopyranosyl)-(1->3)-(2-0-acetyl-alpha-L-arabinopyranoside)] or OSW-1 and its derivatives for cancer therapeutics” (priority 2003, published 2005).

In test [1] the test system is pancreatic cancer (Panco-2) cells. The experiment in a line: MTT cell growth inhibition, Panco-2. It is filed as cell-based. Conditions: Mus musculus, Panco-2, 72 h. As for the experimental part: (§1) 1. MTT Assays. For these assays either cancer cell lines were used. Alternatively, mononuclear cells from peripheral blood samples of CLL patients or normal donors were separated by Ficoll Hipaque fractionation and resuspended in DMEM complete medium. Malignant cells from various human cell lines (usually at 5×10^4 cells/ml) or mononuclear cells from peripheral blood of leukemia patients and healthy donors (1×10^6 cells/ml) were incubated in either αMEM or RPMI 1640 with or without various concentrations of OSW-1 in the range of 0-10 nM. Each experimental condition was done in triplicate. After the indicated number of days (usually 3 days or 72 hours) of exposure to OSW-1, cell survival was assessed by the addition of the MTT dye to the wells. The MTT dye changes its color depending on the presence of live cells in the well. Survival of cells under orsaponin treatment was evaluated as a percentage of control cell growth. Alternatively, one can also use the dye trypan-blue which penetrates dead cells thereby allowing one to count live cells under the microscope and estimating percentage survival.
(§2) The effect of Orsaponin and 17-deoxyorsaponin in pancreatic cancer cells was also assessed. […] Cell growth inhibition was measured by MTT assay.

In another test the test system is ML-1 cells. Description: Mitochondrial transmembrane potential (rhodamine-123), ML-1. It is filed as cell-based, human. Conditions: ML-1, 1 nM, 16 and 24 h. The method, then: FIG. 11. Effect of orsaponin (OSW-1) on mitochondrial transmembrane potential ML-1 cells. The parental ML-1 line and its mutant with mitochondrial respiration defect, clone C19, were incubated with 1 nM OSW-1 for the indicated times. Change in mitochondrial transmembrane potential was measured by cytometry analysis, using rhodamine-123 as a potential-sensitive fluorescent probe.
3. Analysis of the Mitochondrial Transmembrane Potential. To evaluate the role of mitochondrial respiration in the cytotoxicity of OSW-1, changes in the potential of mitochondrial membrane were analyzed. Following the treatment of cells with OSW-1 for different time periods, cells were incubated with rhodamine-123 which is a potential-sensitive dye. Cytometric analysis was used to record changes in mitochondrial potential. […]
The effect of OSW-1 on mitochondrial transmembrane potential of ML-1 cells and the corresponding mitochondrial respiration defective mutant cell line C19 were analyzed by incubating with 1 nM OSW-1 for 4, 16 and 24 hours. Change in mitochondrial transmembrane potential was measured by cytometry analysis, using rhodamine-123 as a potential-sensitive fluorescent probe and are depicted in FIG. 11.

The subject of test [2] is pancreatic cancer AsPC-1 cells. Description: MTT cell growth inhibition, AsPC-1. The format is cell-based, human. Conditions: AsPC-1, 72 h or 96 h. As for the experimental part:
FIG. 3. Effect of Orsaponin (OSW-1) on cell growth in human pancreatic cancer cells. Human pancreatic cancer AsPC-1 cells were treated with the indicated concentrations of OSW-1 for 72 h or 96 h. Cell growth inhibition was measured by MTT assay.
FIG. 4. The anticancer activity of Orsaponin (OSW-1) is not affected by NFκB expression in pancreatic cancer cells. Human pancreatic cancer cells AsPC-1 with constitutive activation of NFκB or inactivation of NFκB by dominant negative IκBα (AsPC-1/IκBα-ND) were treated with the indicated concentrations of OSW-1 for 72 h. Cell growth inhibition was measured by MTT assay.
Cells and Cell Lines. Various cancer cell lines were used including the human leukemia cell lines HL-60 and ML-1 cells; human lymphoma cell line Raji; human pancreatic cancer cells AsPC-1; and human ovarian cancer cells SKOV3; human colon cancer cells HCT116; as well as isolated CLL cells from patients; and lymphocytes from normal donors. […]
1. […] After the indicated number of days (usually 3 days or 72 hours) of exposure to OSW-1, cell survival was assessed by the addition of the MTT dye to the wells. […] Survival of cells under orsaponin treatment was evaluated as a percentage of control cell growth. […]
as §2

Test [3] relates to ovarian cancer SKOV3 cells. The experiment in a line: MTT cell growth inhibition, SKOV3. It is filed as cell-based. Conditions: Homo sapiens, SK-OV-3, SKOV3, 72 h. As for the experimental part:
FIG. 5. Effect of Orsaponin (OSW-1) on cell growth in human ovarian cancer cells (SKOV3). Human ovarian cancer SKOV3 cells were treated with the indicated concentrations of OSW-1 for 72 h. Cell growth inhibition was measured by the MTT assay. The IC50 value is approximately 0.2 nM under the experimental conditions.
1. MTT Assays. For these assays either cancer cell lines were used. Alternatively, mononuclear cells from peripheral blood samples of CLL patients or normal donors were separated by Ficoll Hipaque fractionation and resuspended in DMEM complete medium. […] After the indicated number of days (usually 3 days or 72 hours) of exposure to OSW-1, cell survival was assessed by the addition of the MTT dye to the wells. […] Survival of cells under orsaponin treatment was evaluated as a percentage of control cell growth. […]
OSW-1 Inhibits Growth of Ovarian Cancer Cells. […] Human ovarian cancer SKOV3 cells were treated with 0-10 nM OSW-1 for 72 h and cell growth inhibition was measured by the MTT assay.
The effect of 17-deoxyorsaponin in human ovarian cancer cells was determined. […] Cell growth inhibition was measured by MTT assay (FIG. 17). […] ML-1 leukemia cells were incubated with various concentrations of 17-deoxyorsaponin for 72 h and cell growth inhibition was measured using the MTT assay (FIG. 18).

The subject of another test is Raji cells (lymphoma). The experiment in a line: MTT cell growth inhibition, Raji. Conditions: 72 h. The format is cell-based, human. The method, then: FIG. 2. Effect of Orsaponin (OSW-1) on cell growth in two human cancer cell lines including a leukemia and a lymphoma cell line. HL-60 (leukemia) and Raji cells (lymphoma) in exponentially growing phase were treated with the indicated concentrations of OSW-1 for 72 hours. Cell growth inhibition was measured by MTT assay.
Cells and Cell Lines. Various cancer cell lines were used including the human leukemia cell lines HL-60 and ML-1 cells; human lymphoma cell line Raji; human pancreatic cancer cells AsPC-1; and human ovarian cancer cells SKOV3; human colon cancer cells HCT116; as well as isolated CLL cells from patients; and lymphocytes from normal donors. Cells were grown and maintained as per protocols known in the art using appropriate cell culture media and supplements.
1. MTT Assays. For these assays either cancer cell lines were used. […] After the indicated number of days (usually 3 days or 72 hours) of exposure to OSW-1, cell survival was assessed by the addition of the MTT dye to the wells. […] Survival of cells under orsaponin treatment was evaluated as a percentage of control cell growth. […]
Anticancer activities of Orsaponin and 17-deoxyorsaponin were examined in human leukemia cells (ML-1) and human lymphoma cells (Raji). Cells were incubated with various concentrations of Orsaponin and 17-deoxyorsaponin for 72 h, and cell growth inhibition was measured by MTT assay.

Test [4] deals with primary normal lymphocytes. The experiment in a line: MTT cell viability, normal lymphocytes from healthy donors. The format is cell-based. Conditions: Homo sapiens, Lymphocyte. The method, then:
FIG. 8. Effect of Orsaponin (OSW-1) on cell survival in primary normal lymphocytes isolated from healthy donors. Freshly isolated normal lymphocytes were incubated with the indicated concentrations of OSW-1 for 72 hours in vitro. Cell viability was measured by MTT assay. The IC50 value estimated to be 4 nM and 3 nM in case #1 and #2, respectively.
as §1
As controls the effect of OSW-1 on cell survival in primary normal lymphocytes isolated from healthy donors was also analyzed. Freshly isolated normal lymphocytes were incubated with the 01-0 nM OSW-1 for 72 hours in vitro and cell viability was measured by MTT assay. As depicted in FIG. 8, the IC50 value estimated to be 4 nM and 3 nM in case #1 and #2, respectively.

Each structure is given as a SMILES string. Read-outs that look alike come from different tables or passages of the source. Some results are limits rather than exact numbers.

Broadly, the IC50 is the concentration that gives 50% inhibition.

With `COc1ccc(C(=O)OC2C(OC3C(O)COC(O[C@H]4C[C@H]5[C@@H]6CC=C7C[C@@H](O)CC[C@]7(C)[C@H]6CC[C@]5(C)[C@@]4(O)[C@H](C)C(=O)CCC(C)C)C3OC(C)=O)OCC(O)C2O)cc1` (stereo partly drawn) [OSW-1, 3β, 16β, 17 α-trihydroxycholost-5-en-22-one 16-O-(2-O-4-methoxybenzoyl-β-D-xylopyranosyl)-(1->3)-(2-O-acetyl-α-L-arabinopyranoside)], the IC50 was 0.1 nM in test [1]; roughly 0.2 nM in test [3]; less than 0.5 nM with Raji cells (lymphoma); roughly 4 nM in test [4] (72 h, normal lymphocytes, 72 hours, case #1, read-out: IC50, cell viability); roughly 3 nM in test [4] (72 h, normal lymphocytes, 72 hours, case #2, read-out: IC50, cell viability); 3.5 ± 0.7 nM in test [4] (Normal Lymphocytes, mean, read-out: IC50). The “change in mitochondrial transmembrane potential” value in the test on ML-1 cells is on record as “substantial loss of mitochondrial transmembrane potential”. Moreover, the “concentrations at which highly potent” value in test [2] was in the range of 0.1 to 5 nM.
